# Laboratory results: US6767741B1, “Metal binding compounds and their use in cell culture medium compositions” (Invitrogen Corporation, priority 1999, dated 2004)
# How the values were obtained:
# Format in all cases: cell-based
# [1] = tested on: CHO cells; test: Growth of CHO cells in transferrin-free CD CHO medium with metal binding compounds; details: third passage, control = 5 μg/mL human holo-transferrin, duplicate cultures
# Experimental: The ability of metal binding compounds to support cellular growth in the absence of transferrin was evaluated using CHO cells maintained in CD CHO medium (Life Technologies, Rockville, Md., the formulation of which is described in WO 98/08934). Stock cultures containing 5 μg/mL human holo-transferrin were prepared in CD CHO medium. For metal binding compound evaluation, CHO cells were established in 125 mL shaker flasks at an initial viable seeding density of 1×10^5 cells/mL in a final volume of 20 mL. All cultures were maintained at 37° C. in humidified air containing 8% CO2. To eliminate transferrin carry-over effects, cells were subcultured at 4 day intervals for a total of three passages. Positive control cultures contained 5 μg/mL human holo-transferrin while negative control cultures were established in the absence of either transferrin or metal binding compound. Metal binding compound stocks were prepared at 0.1M-0.2M in ddH2O and solubilized when necessary using 5N NaOH or HCl. Iron complexes were established using 0.2M metal binding compound and iron stocks mixed 1:1 (v/v) and incubated for 5-10 minutes at 22° C. All solutions containing metal binding compounds were filter sterilized using a 0.22 μm Millex-GV filter prior to addition to transferrin and serum-free media.
# (§1) In most cases, metal binding compounds were evaluated either alone or in combination with ferric chloride or ferrous sulfate at 25 μM, 50 μM and 100 μM. Values in the table represent the mean percentage of control growth for duplicate cultures determined at the third passage.
# The ability of various metal binding compounds to substitute for transferrin in the culture of CHO cells was determined. When added to the medium formulation un-complexed, the metal binding compound is listed alone, when added as a complex with a transition metal, the source of the transition metal is listed with the metal binding compound.
# [2] = tested on: 293 cells; test: Growth of 293 cells in transferrin-free 293 SFM with metal binding compounds; details: third passage, control = 5 μg/mL human holo-transferrin, duplicate cultures
# Experimental: Semi-confluent adherent cultures of 293 Cells (ATCC, CRL 1573) are readily adapted to suspension culture. The cells are first detached with a solution of Trypsin-EDTA (0.05% Trypsin, 0.53 mM Na4EDTA), and then resuspended in conventional medium supplemented with 10% FBS to inhibit the trypsin. The resuspended cells are centrifuged at 200×g for five minutes. The cell pellet is resuspended in 293 SFM (available from Life Technologies, Rockville, Md.) the formulation of which is described in WO 98/08934 which is specifically incorporated herein by reference. Alternatively, the cells may be detached with Versene (Na4EDTA, 0.53 mM) and resuspended in 293 SFM.
# The initial seeding density of the 293 cells after conversion to suspension culture is 1×10^6 cells/mL. The cells are shaken on a rotary shaker at 150 rpm in a 37° C. incubator equilibrated with 8% CO2-92% air. When the cells reach a density of 1.5×10^6 cells/mL they are diluted with 293 SFM to a density of 3.0×10^5 cells/mL. Because 293 cells have a tendency to aggregate, the cells may be vortexed vigorously for approximately 45 seconds to obtain a predominantly single cell suspension at the time of passaging and counting. After several passages in suspension culture, the maximum achievable density may be determined.
# The ability of metal binding compounds to support cellular growth was evaluated using 293 cells maintained in 293 SFM (Life Technologies, Rockville, Md.) without transferrin or metal binding compound. Stock cultures containing 5 μg/mL human holo-transferrin were prepared in 293 SFM. For metal binding compound evaluation, 293 cells were established in 125 mL shaker flasks at an initial viable seeding density of 2×10^5 cells/mL in a final volume of 20 mL. All cultures were maintained at 37° C. in humidified air containing 8% CO2. To eliminate transferrin carry-over effects, cells were subcultured at 4 day intervals for a total of three passages. At each subculturing, cells were seeded at a density of 2×10^5 cells/mL. Positive control cultures contained 5 μg/mL human holo-transferrin while negative control cultures were established in the absence of either transferrin or metal binding compound. Metal binding compound stocks were prepared at 0.1M-0.2M in ddH2O and solubilized when necessary using 5N NaOH or HCl. Iron complexes were established using 0.2M metal binding compound and iron stocks mixed 1:1 (v/v) and incubated for 5-10 minutes at 22° C. All solutions containing metal binding compounds were filter sterilized using a 0.22 μm Millex-GV filter prior to addition to transferrin and serum-free media.
# as §1, with “μM. When used in combination, the metal binding compounds were used in equimolar concentration with iron ions.” for “μM.”
# (§2) When added to the medium formulation un-complexed, the metal binding compound is listed alone, when added as a complex with a transition metal, the source of the transition metal is listed with the metal binding compound.
# [3] = tested on: Sp2/0 cells; test: Growth of Sp2/0 cells in transferrin-free CD Hybridoma medium with metal binding compounds; details: third passage, control = 5 μg/mL human holo-transferrin, duplicate cultures
# Experimental: The ability of iron metal binding compounds to support cellular growth in the absence of transferrin was evaluated using Sp2/0 cells maintained in CD Hybridoma medium (Life Technologies, Rockville, Md.). Stock cultures containing 5 μg/mL human holo-transferrin were prepared in CD Hybridoma medium. For metal binding compound evaluation, Sp2/0 cells were established at an initial viable cell density of 0.5×10^5 cells/mL in stationary culture using 75 cm^2 tissue culture flasks in a final volume of 20 mL. All cultures were maintained at 37° C. in humidified air containing 8% CO2. To eliminate transferrin carry-over effects, cells were subcultured at the same seeding density at 4 day intervals for a total of three passages. Positive control cultures contained 5 μg/mL human holotransferrin while negative control cultures were established in the absence of either transferrin or metal binding compound. Metal binding compound stocks were prepared at 0.1M-0.2M in ddH2O and solubilized when necessary using 5N NaOH or HCl. Iron complexes were established using 0.2M metal binding compound and iron stocks mixed 1:1 (v/v) and incubated for 5-10 minutes at 22° C. All solutions containing metal binding compounds were filter sterilized using a 0.22 μm Millex-GV filter prior to addition to transferrin and serum-free media.
# as §1, §2
# [4] = tested on: mammalian cells; test: Replacement of transferrin as iron carrier in culture media (general statements); details: statement in words
# Description: By “compatible ingredients” is also meant those media nutrients which can be maintained together in solution and form a “stable” combination. […] Ingredients are also considered “stable” if degradation cannot be detected or when degradation occurs at a slower rate when compared to decomposition of the same ingredient in a 1×cell culture media formulation. For example, in 1×media formulations glutamine is known to degrade into pyrolidone carboxylic acid and ammonia. Glutamine in combination with divalent cations are considered “compatible ingredients” since little or no decomposition of the glutamine can be detected over time in solutions or combinations in which both glutamine and divalent cations are present. See U.S. Pat. No. 5,474,931.
# The metal-binding compounds used in accordance with the present invention may be obtained commercially (e.g., from Sigma,St. Louis, Mo. and other well-known commercial sources), or may be prepared synthetically according to the guidance provided by the technical and patent publications referenced herein, the disclosures of which are incorporated herein by reference in their entireties.
Compound,mean percentage of control growth ([1]; 25 μM),mean percentage of control growth ([1]; 50 μM),mean percentage of control growth ([1]; 100 μM),mean percentage of control growth ([2]; 25 μM),mean percentage of control growth ([2]; 50 μM),mean percentage of control growth ([2]; 100 μM),mean percentage of control growth ([3]; 25 μM),mean percentage of control growth ([3]; 50 μM),mean percentage of control growth ([3]; 100 μM),ability to replace transferrin as iron carrier in culture media [4]
"O=S(=O)([O-])[O-].[Fe+2] [Ferrous Sulfate, reference compound]",88%,79%,38%,71%,60%,41%,91%,103%,94%,
NC(=O)CCC(N)C(=O)O.[Cl][Fe]([Cl])[Cl] (centres unmarked) [Glutamine · Ferric Chloride],,,,,,,36%,55%,65%,can be substituted for transferrin
O=C(O)CN(CC(=O)O)CC(=O)O.[Cl][Fe]([Cl])[Cl] [Nitriloacetic Acid · Ferric Chloride],127%,107%,107%,100%,118%,74%,88%,87%,70%,
NC(CO)C(=O)NO.[Cl][Fe]([Cl])[Cl] (centres unmarked) [Serine Hydroxamate · Ferric Chloride],106%,121%,124%,68%,65%,51%,46%,66%,62%,
OC[C@@H](O)[C@@H](O)[C@H](O)[C@@H](O)CO [sorbitol],,,,,,,,,,used successfully to replace transferrin
Ferrous Gluconate · Ascorbic Acid Phosphate,91%,61%,28%,86%,109%,101%,92%,94%,93%,
